Experimental data from the SangsterLogP compilation.
Square brackets hold non-standard residues; d marks the D form. Peptide text beside a SMILES is read from it. NMeF = CN[CH](Cc1ccccc1)C(=O)O

Experiments:
[1] = method code SF-HPLC, from DOI: 10.1016/0045-6535(86)90532-1; details: pH 6.5
[2] = method code SF-AS, from Lee, B.; Shin, J.; Lim, M.; Jang, T.; Park, J.; Kim, K.; Kang, W. (1997). Partition Property of 5-Nitrothiopyrimidine Nucleoside. Bull Korean Chem Soc, 18(7)734-736.; details: pH 7.0
[3] = method code SF-AS, from DOI: 10.1021/jm0104926, PMID: 11960499
[4] = not given; remark: listed apart in the source
[5] = not given; remark: listed apart in the source
[6] = not given; remark: listed apart in the source
[7] = not given; remark: listed apart in the source
[8] = method code SF-HPLC, from DOI: 10.1002/jccs.199500138
[9] = not given; remark: listed apart in the source
[10] = method code SF-RC, from DOI: 10.1023/a:1015867608405, PMID: 1614980; details: pH 7.4
[11] = method code HPLC, from DOI: 10.1016/j.bmcl.2004.01.062, PMID: 15026043; details: pH 5.5
[12] = method code SF-HPLC, from DOI: 10.1002/jlac.1995199512306
[13] = method code SF-AS, from DOI: 10.1016/j.ejmech.2011.02.056, PMID: 21420207
[14] = method code SF-HPLC, from DOI: 10.1021/jm00169a024, PMID: 2194033; details: pH 7.4
[15] = not given; remark: listed apart in the source
[16] = method code SF-CR+AS, from DOI: 10.1007/bf00500994, PMID: 4267539; details: pH 7.4
[17] = not given; remark: listed apart in the source
[18] = method code HPLC, from DOI: 10.1016/j.ejmech.2015.05.022, PMID: 26005028; details: pH 7.1
[19] = not given; remark: listed apart in the source
[20] = method code SF, from DOI: 10.1515/znc-1979-1128; details: pH 7.4

Structure (SMILES): S=C1NCCN1
- logD [1]: -0.66

Structure (SMILES): O=[N+]([O-])c1c[nH]c(=S)[nH]c1=S
- logD [2]: 0.52

Structure (SMILES): FC(F)(C(Cl)Br)C1N=N1 (configuration not stated)
- logP [3]: 1.9

Structure (SMILES): CCC#N
- logP: 0.1

Structure (SMILES): CCCC
- logP [4]: 2.74

Structure (SMILES): CC[C@H]1OC(=O)C[C@@H](O)[C@H](C)[C@@H](O[C@@H]2O[C@H](C)C[C@H](N(C)C)[C@H]2O)[C@@H](CC=O)C[C@@H](C)C(=O)/C=C/[C@]2(C)O[C@H]2[C@@H]1C
- logP [5]: 2.19

Structure (SMILES): CC[C@H]1OC(=O)[C@H](C)[C@@H](O[C@H]2C[C@@](C)(OC)[C@@H](O)[C@H](C)O2)[C@H](C)[C@@H](O[C@@H]2O[C@H](C)C[C@H](N(C)C)[C@H]2O)[C@](C)(O)C[C@@H](C)C(=O)[C@H](C)[C@@H](O)[C@]1(C)O
- logP [5]: 3.06

Structure (SMILES): C=C1CC[C@H](O)C/C1=C/C=C1\CCC[C@]2(C)[C@@H]([C@H](C)CCCC(C)C)CC[C@@H]12
- logP [6]: 10.2

Structure (SMILES): C=CCBr
- logP [7]: 1.9

Structure (SMILES): CC(=O)OC1CCC2(C)C3=CCC4(C)C(C(C)CCC=C(C)C(=O)O)CC(O)C4(C)C3=CCC2C1(C)C (configuration not stated)
- logP [8]: 2.72

Structure (SMILES): CCCCCCCCc1ccc(OCC(=O)Cn2cc(C(=O)C(C)C)c3cc(C(=O)O)ccc32)cc1
- logP [9]: 6.6

Structure (SMILES): CNC(=O)C(Cc1ccccc1)N(C)C(=O)C(Cc1ccccc1)N(C)C(=O)C(Cc1ccccc1)N(C)C(C)=O (configuration not stated) (Ac-[NMeF]-[NMeF]-[NMeF]-NHMe; configuration not given here)
- logD [10]: 3.24

Structure (SMILES): CC(=O)OCCCCOC(C)=O
- logP [7]: 0.01

Structure (SMILES): CN(C)C(=O)Oc1ccc(CC(NC(=O)C2N(S(=O)(=O)c3cnn(C)c3)CSC2(C)C)C(=O)OCC(C)(C)C)cc1 (configuration not stated)
- logD [11]: 3.42

Structure (SMILES): Cc1cn(C2CC(N=[N+]=[N-])C(COP(=O)(OCc3ccccc3)OCC3OC(n4cc(C)c(=O)[nH]c4=O)CC3N=[N+]=[N-])O2)c(=O)[nH]c1=O (configuration not stated)
- logP [12]: 1.34

Structure (SMILES): ClC(Cl)(Cl)Cl
- logP [4]: 2.59

Structure (SMILES): CCCCCCCCc1ccc(OCC(=O)Cn2ccc3cc(C(=O)O)ccc32)cc1
- logP [9]: 6.3

Structure (SMILES): CC(C)OC(=O)C(Cc1ccc(OC(=O)N(C)C)cc1)NC(=O)C1N(S(=O)(=O)c2cnn(C)c2)CSC1(C)C (configuration not stated)
- logD [11]: 2.46

Structure (SMILES): Nc1ccc(S(=O)(=O)NC(=O)c2ccccc2)cc1
- logP: 1.46

Structure (SMILES): CCCCCCCC(=O)N[C@H]1C[C@H](O[C@H]2C[C@](O)(C(=O)CO)Cc3c(O)c4c(c(O)c32)C(=O)c2c(OC)cccc2C4=O)O[C@@H](C)[C@H]1O
- logP [13]: 1.81

Structure (SMILES): CC(=O)O[C@@H]1C[C@@H]([C@@H](C)CC/C=C(\C)C(=O)O)[C@]2(C)CC=C3C(=CCC4C(C)(C)[C@H](O)CC[C@@]34C)[C@@]12C (some centres not stated)
- logP [8]: 2.71

Structure (SMILES): CCN1CC(C(O)[C@H](CC2CCCCC2)NC(=O)[C@H](Cc2cnc[nH]2)NC(=O)[C@@H](CC(=O)N(C)CCOC)Cc2ccccc2)OC1=O (some centres not stated)
- logD [14]: 2.45

Structure (SMILES): CCN(CC)C(=O)SCc1ccc(Cl)cc1
- logP [15]: 3.78

Structure (SMILES): OCC(Cl)(Cl)Cl
- logD [16]: 1.42

Structure (SMILES): CCCCCCCCCCCCCCCC(=O)N[C@H]1C[C@H](O[C@H]2C[C@](O)(C(=O)CO)Cc3c(O)c4c(c(O)c32)C(=O)c2c(OC)cccc2C4=O)O[C@@H](C)[C@H]1O
- logP [13]: 2.19

Structure (SMILES): ClC(Cl)Br
- logP [17]: 2.1

Structure (SMILES): CCCCCCNC(=O)CBr
- logD [18]: 2.18

Structure (SMILES): Cc1cc(O)no1
- logP [15]: 0.26

Structure (SMILES): CC(C)=O
- logP [19]: -0.17

Structure (SMILES): CC1=C(C)C(O)N(c2ccc(C)c(C)c2)C1=O (configuration not stated)
- logD [20]: 2.36

Structure (SMILES): O=c1[nH]cc([N+](=O)[O-])c(=O)[nH]1
- logD [2]: -1.38

Structure (SMILES): Cc1cn(C2CC(N=[N+]=[N-])C(COP(=O)(OCc3cccc([N+](=O)[O-])c3)OCC3OC(n4cc(C)c(=O)[nH]c4=O)CC3N=[N+]=[N-])O2)c(=O)[nH]c1=O (configuration not stated)
- logP [12]: 0.99
